{"source": "patent US20110059114A1", "about": "“Compositions and Methods for the Treatment of Radioresistant Glioma Stem Cells” (DUKE UNIVERSITY, priority 2009, published 2011)", "format_in_all_cases": "cell-based, human", "key": {"T4302 CD133+ cells": {"tested_on": "T4302 CD133+ cells", "experiment": "Trypan blue exclusion assay", "conditions": "two days after 3-Gy radiation", "protocol": "FIG. 2 is a series of graphs illustrating that γ-secretase inhibitors enhance radiation-induced cell death in glioma stem cells. (A) T4302 CD 133+ cells were pre-treated with DAPT or L685,458 for 4 hours and irradiated at 3 Gy. Percentage of dead cells was determined by trypan blue exclusion assay at 48 hours after radiation exposure. (B) T4302 CD 133+ cells were treated with GSIs ±radiation as indicated. Cells were then plated at 3000 cells per well in 96-well plates. Relative caspase 3/7 activities were determined by normalizing caspase activities to the corresponding cell titers. (C) T4302 CD 133+ cells were treated as described in FIG. 2A. 24 or 48 hours after radiation exposure, cells were labeled with FITC-conjugated Annexin V staining kit (BD Sciences) according to manufacturer's instructions and analyzed by flow cytometry. (D) T4302 CD 133+ cells were pre-treated with 2 μM DAPT for 4 hours, and were left unirradiated or irradiated at 1, 2 or 3 Gy. Relative caspase 3/7 activities were determined at 72 hours after radiation. (E) T4302 CD133+ cells were pre-treated with DAPT at indicated concentrations for 4 hours and irradiated at 3 Gy. Relative caspase activities were determined at 48 or 72 hours after radiation. *: p<0.01 by Student's t-test; #: p<0.01 by one-way ANOVA."}, "Chk1 and Chk2": {"tested_on": "Chk1 and Chk2", "experiment": "Immunoblotting of activating phosphorylation of Chk1 and Chk2", "conditions": "following radiation, pretreated 24 hours", "protocol": "(A) T4302 CD133+ cells were pretreated with DPAT or L685,458 for 24 hours prior radiation. One hour after radiation exposure, cells were harvested. The levels of activating phosphorylation of Chk1 and Chk2 were assessed by immunoblotting. (B) T4302 CD133+ cells were treated with 2 μM DAPT at 4, 24 hours prior to radiation (−24 hrs, or -4 hrs), or at 0, 4, 24 hours after radiation. Relative caspase 3/7 activities were measured 3 days after radiation exposure. *: p<0.001 by Student's t-test.\nAntibodies, DNA constructs, lentiviruses and other reagents. The antibodies purchased from Cell Signaling Technology (Danvers, M A) include phosphor-S296-Chk1 (2349), total Chk1 (2345), phosphor-T68-Chk2 (2661), total Chk2 (2662), phospho-5473 Akt (#9271), total Akt (#9272), PTEN (#9556), phospho-S15-p53 (#9286), Bcl-2 (#2870), Bcl-xL (#2764), Mcl-1 (#4572), Puma (#4976). Other antibodies used in this study are p53 antibody (#sc-126, Santa Cruz Biotechnology, Santa Cruz, Calif.), and actin antibody (Millipore, Billerica, Mass.). The pcDNA3-Notch1 construct was kindly provided by Dr. Spyros Artavanis-Tsakonas, Harvard University. The coding sequences of intracellular domain of Notch1 (amino acid residues 1744-2556) was amplified by PCR and subcloned into the lentiviral vector pCDH-CMV-EF1-puro (System Biosciences, Mountain View, Calif.) through the EcoRI and NotI sites. […]"}, "[1]": {"tested_on": "T4302 CD133+ glioma stem cells", "experiment": "Growth curve, CellTiter-Glo Luminescent Cell Viability Assay", "conditions": "without radiation treatment, day five; 2 μM DAPT or 0.5 μM L685,458", "from_the_text": "FIG. 1 is a series of graphs illustrating that γ-secretase inhibitors reduce cell growth and clonogenic survival of glioma stem cells following radiation. (A) T4302 CD133+ glioma stem cells were transfected with a Notch-responsive luciferase reporter (RBP-JK reporter) pre-mixed with the vector directing constitutive expression of Renilla luciferase. Cells were left unirradiated or irradiated at 3 Gy, and were then collected to measure luciferase activities at time points as indicated. […] The relative mRNA levels of Hes2 were determined by quantitative real-time PCR at the time points as indicated. […] Total viable cell numbers were then determined by the CellTiter-Glo Luminescent Cell Viability Assay (Promega) for the following five days. […] Cells were then plated to form neurospheres, and the surviving fractions were determined as described in methods. […] (F,G) Neurosphere formation of T3359 and T4105 CD 133+ cells treated with GSIs alone, 3-Gy radiation alone, or the combination was determined as described in FIG. 1E. *: p<0.05 by Student's t-test; #: p<0.001 by one-way ANOVA.\nGrowth Curve, caspase 3/7 assay, and clonogenic survival assay. […] Cell number was measured for 5 days using the CellTiter-Glo assay kit (Promega, Madison, […].). […]"}}}
{"smiles": "CC(NC(=O)Cc1cc(F)cc(F)c1)C(=O)NC(C(=O)OC(C)(C)C)c1ccccc1", "note": "[DAPT, N-[N-(3,5-Difluorophenacetyl-L-alanyl)]-S-phenylglycine t-Butyl Ester]", "values": [{"measurement": "dead cells", "setting": "T4302 CD133+ cells", "result": 60, "unit": "%"}, {"measurement": "activating phosphorylation of Chk1 or Chk2", "setting": "Chk1 and Chk2", "result": "Neither of DAPT or L685,458 significantly altered"}, {"measurement": "sham-treated cells more than GSI-treated cells (total cell number)", "setting": "[1]", "result": 25, "unit": "%"}]}
